Experimental data published in patent US8415342B2, “Besifloxacin ophthalmic composition for the treatment or control of infection” (Bausch & Lomb Incorporated, priority 2008, dated 2013).

Experiments:
Format in all cases: cell-based
[1] = tested on: Corynebacterium pseudodiphtheriticum; experiment: MIC of clinical trial isolates, Studies 373, 433, 434; conditions: N 8
S. epidermidis = experiment: as above; conditions: Staphylococcus epidermidis, all phenotypes, N 111
S. aureus = experiment: as above; conditions: Staphylococcus aureus, all phenotypes, N 190
Streptococcus salivarius = experiment: as above; conditions: N 9
Corynebacterium striatum = experiment: as above; conditions: N 8
[2] = tested on: Staphylococcus lugdunensis; experiment: as above; conditions: N 8
[3] = tested on: baseline pathogens of bacterial conjunctivitis patients; experiment: MIC of baseline clinical trial isolates, Studies 373, 433, 434 (all species)
Staphylococcus hominis = experiment: MIC of clinical trial isolates, Studies 373, 433, 434; conditions: N 9
S. mitis group = experiment: as above; conditions: Streptococcus mitis group, N 45
Description: (§1) PFGE testing was performed per standard procedures.
(§2) The antibacterial susceptibility profile of each Visit 1 bacterial isolate was determined for besifloxacin and other antimicrobials.

S. pneumoniae = experiment: as above; conditions: Streptococcus pneumoniae, all phenotypes, N 302
Description: as §1, §2

Streptococcus oralis = experiment: as above; conditions: N 18
Description: as §1, §2

CDC coryneform group G = experiment: as above; conditions: N 29
Description: as §1, §2

H. influenzae = experiment: as above; conditions: Haemophilus influenzae, all phenotypes, N 344
Description: as §1, §2

Streptococcus mitis = experiment: as above; conditions: Streptococcus mitis (listed separately from S. mitis group), N 20
Description: PFGE testing was performed per standard procedures. […] Analysis Populations

SMILES | MIC50 [1] [µg/mL] | MIC Range [1] [µg/mL] | MIC50 (S. epidermidis) [µg/mL] | MIC90 (S. epidermidis) [µg/mL] | MIC50 (S. aureus) [µg/mL] | MIC90 (S. aureus) [µg/mL] | MIC50 (Streptococcus salivarius) [µg/mL] | MIC Range (Streptococcus salivarius) [µg/mL] | MIC50 (Corynebacterium striatum) [µg/mL] | MIC50 [2] [µg/mL] | MIC50 ([3]; All organisms, N 1324) [µg/mL] | MIC90 ([3]; All organisms, N 1324) [µg/mL] | MIC50 ([3]; Gram-negative, N 438) [µg/mL] | MIC90 ([3]; Gram-negative, N 438) [µg/mL] | MIC50 ([3]; Gram-positive, N 886) [µg/mL] | MIC90 ([3]; Gram-positive, N 886) [µg/mL] | MIC50 (Staphylococcus hominis) [µg/mL] | MIC Range (Staphylococcus hominis) [µg/mL] | MIC50 (S. mitis group) [µg/mL] | MIC90 (S. mitis group) [µg/mL] | also measured
COc1c(N2CCNC(C)C2)c(F)cc2c(=O)c(C(=O)O)cn(C3CC3)c12 (centres unmarked) [GATI] | 0.5 | 0.06 to 0.5 | 0.125 | 2 | 0.125 | 4 | 0.5 | 0.5 to 2 | 0.03 | 0.25 | 0.125 | 0.5 | 0.015 | 0.25 | 0.25 | 1 | 0.125 | 0.06 to 2 | 0.5 | 0.5 | MIC Range (Corynebacterium striatum): 0.015 to 2 µg/mL; MIC Range [2]: 0.25 to 2 µg/mL; MIC Range ([3]; Gram-negative, N 438): ≦0.004-8 μg/mL; MIC Range (S. mitis group): 0.06 to 2 µg/mL; MIC50 (S. pneumoniae): 0.25 µg/mL; MIC90 (S. pneumoniae): 0.5 µg/mL; MIC Range (S. pneumoniae): 0.125 to 1 µg/mL; MIC50 (Streptococcus oralis): 0.5 µg/mL; MIC90 (Streptococcus oralis): 1 µg/mL; MIC Range (Streptococcus oralis): 0.03 to 1 µg/mL; MIC50 (CDC coryneform group G): 0.06 µg/mL; MIC90 (CDC coryneform group G): 0.5 µg/mL; MIC Range (CDC coryneform group G): 0.03 to 8 µg/mL; MIC50 (H. influenzae): 0.015 µg/mL; MIC90 (H. influenzae): 0.03 µg/mL; MIC Range (H. influenzae): ≦0.004-0.5 μg/mL; MIC50 (Streptococcus mitis): 0.5 µg/mL; MIC90 (Streptococcus mitis): 1 µg/mL; MIC Range (Streptococcus mitis): 0.25 to 1 µg/mL
C[C@H]1COc2c(N3CCN(C)CC3)c(F)cc3c(=O)c(C(=O)O)cn1c23 [LEVO] | 0.5 | 0.06 to 1 | 0.25 | 8 | 0.25 | 8 | 1 | 1 to 2 | 0.06 | 0.25 | 0.25 | 1 | 0.03 | 0.125 | 0.5 | 2 | 0.125 | 0.125 to 4 | 1 | 2 | MIC Range (Corynebacterium striatum): 0.03 to 4 µg/mL; MIC Range [2]: 0.25 to 2 µg/mL; MIC Range ([3]; Gram-negative, N 438): ≦0.004-8 μg/mL; MIC50 (S. pneumoniae): 0.5 µg/mL; MIC90 (S. pneumoniae): 1 µg/mL; MIC Range (S. pneumoniae): 0.125 to 2 µg/mL; MIC50 (Streptococcus oralis): 1 µg/mL; MIC90 (Streptococcus oralis): 2 µg/mL; MIC Range (Streptococcus oralis): 0.125 to 2 µg/mL; MIC50 (CDC coryneform group G): 0.06 µg/mL; MIC90 (CDC coryneform group G): 1 µg/mL; MIC50 (H. influenzae): 0.03 µg/mL; MIC90 (H. influenzae): 0.03 µg/mL; MIC Range (H. influenzae): ≦0.004-1 μg/mL; MIC50 (Streptococcus mitis): 1 µg/mL; MIC90 (Streptococcus mitis): 1 µg/mL; MIC Range (Streptococcus mitis): 0.5 to 2 µg/mL
CC1COc2c(N3CCN(C)CC3)c(F)cc3c(=O)c(C(=O)O)cn1c23 (centres unmarked) [OFLOX] | 1 | 0.125 to 2 | 0.5 | >8 | 0.5 | >8 | 2 | 2 to 4 | 0.125 | 1 | 0.5 | 2 | 0.03 | 0.25 | 1 | 4 | 0.25 | 0.25 | 2 | 4 | MIC Range (S. epidermidis): 0.25 µg/mL; MIC Range (S. mitis group): 0.25 µg/mL; MIC50 (S. pneumoniae): 1 µg/mL; MIC90 (S. pneumoniae): 2 µg/mL; MIC50 (Streptococcus oralis): 2 µg/mL; MIC90 (Streptococcus oralis): 4 µg/mL; MIC Range (Streptococcus oralis): 0.125 µg/mL; MIC50 (CDC coryneform group G): 0.125 µg/mL; MIC90 (CDC coryneform group G): 2 µg/mL; MIC50 (H. influenzae): 0.03 µg/mL; MIC90 (H. influenzae): 0.06 µg/mL; MIC50 (Streptococcus mitis): 2 µg/mL; MIC90 (Streptococcus mitis): 2 µg/mL; MIC Range (Streptococcus mitis): 1 to 4 µg/mL
